From PubChem BioAssay (NCI)
Where “and” joins values, the source holds several entries; their conditions need not be identical. Equal entries are not always repeated.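 Tested at 5 concentrations; 48 h exposure; 96-well plates; endpoints linearly interpolated, else capped at highest concentration. GI50 marks 50% less growth. At the TGI there is no net growth.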

Tests used:
Assay in all cases: inhibition of tumour cell growth, NCI panel, 48 h
EKVX NSCLC = system: EKVX NSCLC
UO-31 renal = system: UO-31 renal
IGROV1 ovarian = system: IGROV1 ovarian
U251 CNS = system: U251 CNS
KM12 colon = system: KM12 colon
PC-3 prostate = system: PC-3 prostate
K-562 leukemia = system: K-562 leukemia
LOX IMVI melanoma = system: LOX IMVI melanoma
MALME-3M melanoma = system: MALME-3M melanoma
786-0 renal = system: 786-0 renal

Row | Compound | TGI (EKVX NSCLC) | TGI (UO-31 renal) | TGI (IGROV1 ovarian) | TGI (U251 CNS) | TGI (KM12 colon) | TGI (PC-3 prostate) | TGI (K-562 leukemia) | TGI (LOX IMVI melanoma) | TGI (MALME-3M melanoma) | TGI (786-0 renal) | GI50 (PC-3 prostate) | GI50 (786-0 renal) | GI50 (EKVX NSCLC) | GI50 (UO-31 renal) | GI50 (IGROV1 ovarian) | GI50 (U251 CNS) | GI50 (KM12 colon) | GI50 (K-562 leukemia) | GI50 (LOX IMVI melanoma) | GI50 (MALME-3M melanoma)
1 | COc1ccc(OC)c2c(/C=C/c3ccc(N(C)C)cc3)ccnc12 | > 10 µM | > 10 µM | > 10 µM | > 10 µM | > 10 µM | > 10 µM | > 10 µM | > 10 µM | > 10 µM | > 10 µM | – | – | – | – | – | – | – | – | – | –
2 | C[C@]12CC[C@H](O)C[C@H]1CC[C@@H]1[C@@H]2CC[C@]2(C)[C@@H](C3=CC(=O)OC3)CC[C@]12O | 0.433 µM | 4.07 µM | 2.82 µM | 1.52 µM | 3.27 µM | 3.7 µM | 1.42 µM | 0.533 µM | 0.523 µM | 0.142 µM | 0.178 µM | 0.0337 µM | – | – | – | – | – | – | – | –
3 | COc1cc2c(c(OC)n1)[C@]1(O)[C@H](O)[C@H](CN(C)C)[C@@H](c3ccccc3)[C@]1(c1ccc(C#N)cc1)O2 | 2.81 µM and 2.54 µM | 0.479 µM and 0.319 µM | 2.44 µM and 1.93 µM | 2.39 µM and 7.95 µM | 3.61 µM and 7.59 µM | 10.7 µM and 2.39 µM | – | 0.0153 µM and 0.0133 µM | 0.7 µM and 0.841 µM | 7.37 µM and 4.06 µM | 0.0223 µM and < 0.0116 µM | 0.0443 µM and 0.0313 µM | 0.0305 µM and 0.0237 µM | 0.0224 µM and 0.0197 µM | 0.0134 µM and < 0.01 µM | 0.02 µM and < 0.0111 µM | 0.0128 µM and < 0.01 µM | < 0.01 µM | < 0.01 µM | 0.0194 µM and 0.019 µM
4 | CCc1ccccc1NC(=O)c1sc2nc3c(cc2c1N)C(=O)CCC3 | – | > 100 µM | > 100 µM | 51.7 µM | > 100 µM | > 100 µM | > 100 µM | > 100 µM | > 100 µM | > 74.2 µM | 0.461 µM | 0.722 µM | – | 14.8 µM | 15.5 µM | 0.608 µM | 0.432 µM | 0.275 µM | 0.669 µM | 26.2 µM
5 | O=c1[nH]cnc2cccc(Cl)c12 | > 100 µM | > 100 µM | > 100 µM | > 100 µM | > 100 µM | > 100 µM | > 100 µM | – | > 100 µM | > 100 µM | – | – | – | – | – | – | – | – | – | –
6 | O=C(/C=C/c1cc(CN2CCOCC2)c(O)c2ncccc12)c1cc(CN2CCOCC2)c(O)c2ncccc12 | > 100 µM | > 100 µM | > 66.6 µM | 4.95 µM | > 100 µM | > 100 µM | > 100 µM | > 100 µM | > 100 µM | > 32.6 µM | 0.05 µM | 0.0802 µM | 0.077 µM | 0.0408 µM | 0.0682 µM | < 0.0172 µM | 0.0437 µM | < 0.0114 µM | 0.0394 µM | 0.145 µM
7 | NC(CS/C(Cl)=C/Cl)C(=O)O (configuration not stated) | > 100 µM | > 100 µM | > 100 µM | > 100 µM | > 100 µM | > 100 µM | > 100 µM | 4.34 µM | > 100 µM | > 100 µM | 34.3 µM | > 100 µM | 31.7 µM | 54.8 µM | > 100 µM | > 61 µM | 67.3 µM | 33.4 µM | 1.02 µM | 62.4 µM
8 | O=C(CSC(c1ccccc1)c1ccccc1)N/N=C/c1ccc(Cl)cc1Cl | > 100 µM | 68 µM | 53.5 µM | 67.3 µM | 38.9 µM | > 100 µM | 96.6 µM | 97.4 µM | 42 µM | > 100 µM | 31.9 µM | 40.1 µM | 43.6 µM | 18.8 µM | 19.9 µM | 24 µM | 16.6 µM | 19 µM | 27.1 µM | 16 µM
9 | Cc1cc[c-]cc1.Fc1c[c-]c(-c2ccccn2)c(F)c1.[Pt+2].c1ccc(P(C[PH+](c2ccccc2)c2ccccc2)c2ccccc2)cc1 | 12.7 µM | 7.53 µM | 12.2 µM | 12.2 µM | 9.23 µM | 11.7 µM | 12.2 µM | 6.24 µM | 5.06 µM | 10.1 µM | 1.76 µM | 2.92 µM | 2.32 µM | 2.13 µM | 2.11 µM | 2.32 µM | 2.4 µM | 1.56 µM | 2.19 µM | 1.7 µM
10 | NC(N)=NCCCCCNc1noc(Cc2c[nH]c3cc(Br)ccc23)n1 | – | > 100 µM | 19.4 µM | 14.9 µM | 15.9 µM | 79.6 µM | 38.6 µM | 45.2 µM | 35 µM | 86.3 µM | 2.57 µM | 23 µM | – | 20.2 µM | 4.55 µM | 2.78 µM | 3.95 µM | 9.4 µM | 10.6 µM | 8.34 µM
11 | C[C@]12CC[C@@H]3c4ccc(O)cc4CC[C@H]3[C@@H]1CC[C@@H]2NS(=O)(=O)c1cccc(F)c1 | – | 10.3 µM | 21.8 µM | 12.1 µM | 6.31 µM | 14 µM | 15.2 µM | 10.8 µM | 7.76 µM | 11.3 µM | 2.96 µM | 3.38 µM | – | 2.04 µM | 5.42 µM | 3.23 µM | 2.34 µM | 3.22 µM | 3.09 µM | 2.52 µM
12 | O=[N+]([O-])c1ccc2c(c1)C(c1ccccc1Cl)=Nc1cn[nH]c1N2 | – | > 25 µM | > 25 µM | > 25 µM | > 25 µM | > 25 µM | > 25 µM | > 25 µM | > 25 µM | > 25 µM | 14.3 µM | 11.8 µM | – | 11.1 µM | > 23.5 µM | 9.91 µM | 12.1 µM | 19 µM | 18.1 µM | > 25 µM
13 | COc1cc(C2=C(c3cn(C)c4ccccc34)COC2=O)cc(OC)c1OC | 5.42 µM | 6.37 µM | 21.7 µM | > 100 µM | – | 53.8 µM | > 100 µM | – | 14.7 µM | > 32.8 µM | 0.125 µM | 0.317 µM | 0.121 µM | 0.226 µM | 0.0771 µM | 0.0731 µM | – | 0.037 µM | – | 0.474 µM
14 | Cn1cc(C2=C(c3cn(CCCCCN)c4ccccc34)C(=O)NC2=O)c2ccccc21 | – | > 25 µM | > 25 µM | > 25 µM | > 25 µM | > 25 µM | > 25 µM | 13.5 µM | > 25 µM | > 25 µM | 13.8 µM | 9.83 µM | – | 5.52 µM | 14.7 µM | 10.8 µM | 17.8 µM | 9.14 µM | 4.9 µM | 18.4 µM
15 | COc1ccc(-c2c[nH]c(=S)n2-c2ccc(OC)cc2)cc1 | > 50 µM | > 50 µM | > 50 µM | > 50 µM | > 50 µM | > 50 µM | > 50 µM | > 50 µM | – | > 50 µM | > 50 µM | > 50 µM | > 50 µM | > 50 µM | > 50 µM | > 50 µM | > 50 µM | > 50 µM | > 50 µM | –
16 | O=C(Nc1ccc(Br)cc1)c1ccc(Cl)c(Cl)c1 | > 100 µM | > 100 µM | > 100 µM | > 100 µM | > 100 µM | > 30.8 µM | > 100 µM | 7.67 µM | – | > 100 µM | 2.47 µM | 3.92 µM | 1.99 µM | 2.31 µM | 2.85 µM | 3.27 µM | 3.16 µM | 3.99 µM | 2.56 µM | –
17 | COc1ccc(Nc2c3ccccc3nc3occ(Cl)c23)cc1 | 6.89 µM | 26.9 µM | > 77.2 µM | – | 4.1 µM | 13.6 µM | > 35.1 µM | – | 14.7 µM | 21 µM | < 0.01 µM | 0.0335 µM | 1.76 µM | 0.346 µM | 0.0634 µM | – | < 0.01 µM | < 0.01 µM | – | 0.0124 µM
18 | Cc1cc(N/N=C/c2nc(-c3ccc(Br)cc3)oc2C)c2cc(Br)ccc2n1 | 38.5 µM | 26.8 µM | 20.2 µM | 3.75 µM | 5.71 µM | 8.75 µM | – | 4.3 µM | 4.48 µM | 3.42 µM | 2.68 µM | 1.7 µM | 19.3 µM | 13.9 µM | 4.55 µM | 1.94 µM | 2.25 µM | – | 1.99 µM | 2.1 µM
19 | Cc1cc(S(=O)(=O)N/N=C(\Sc2cc(Cl)c(C)cc2S(N)(=O)=O)c2ccc(Cl)cc2)c(Cl)cc1Cl | > 100 µM | > 100 µM | > 100 µM | > 100 µM | > 100 µM | > 100 µM | > 100 µM | 99.6 µM | – | > 100 µM | 86.4 µM | 42.1 µM | > 100 µM | 57.1 µM | 70.2 µM | 53.1 µM | > 100 µM | 67.7 µM | 30.8 µM | –
20 | Cc1cc2c(cc1Cl)SC(=Nc1ccc(Cl)cc1)N(S(=O)(=O)c1ccccc1)S2(=O)=O | 29.3 µM | 32.7 µM | 31.7 µM | 19.5 µM | 50.4 µM | 23.1 µM | 58.2 µM | 7.18 µM | – | 18.1 µM | 10.9 µM | 4.54 µM | 15.1 µM | 13.5 µM | 2.55 µM | 5.96 µM | 20 µM | 9.19 µM | 1.58 µM | –
